Tests used:
Jurkat-LAT-GFP = experiment: in vitro model of HIV-1 latency, Jurkat-LAT-GFP; type: cell-based
classical PKCs pathways = experiment: cPKC translocation and signalling pathway activation in T cells; type: cell-based
From the text: Low concentrations of Bryostatin-1 activate the cPKC-Ras-Raf-ERK pathway and synergize with an HDAC inhibitor, valproic acid (VPA), to activate the transcription factor SP1.

transcription factor SP1 = experiment: activation of transcription factor SP1, combination with valproic acid; type: cell-based; settings: low concentrations; with HDAC inhibitor valproic acid
T cells = experiment: transcriptome studies in T cells; type: cell-based; settings: 10 and 100 nM
[1] = tested on: PBMC isolated from HIV-1 patients; experiment: HIV-1 latency ex vivo in PBMC isolated from HIV-1 patients; type: cell-based, human
[2] = Phase I clinical study in HIV-1 patients (NCT02269605); type: in vivo, human; settings: doses of 10 and 20 μg/m2
[3] = tested on: human HIV-1 receptors CD4 and CXCR4; settings: low concentrations; cited from earlier work
HIV-1 = settings: low concentrations; cited from earlier work
HIV-1 latency = settings: very low concentrations (1-10 nM); in vitro; cited from earlier work
HIV = settings: some HIV-infected patients; cited from earlier work
[4] = concentrations higher than 10 nM

SMILES | reactivation of HIV-1 latency in T cells (Jurkat-LAT-GFP; Jurkat-LAT-GFP, via classical PKCs pathways) | reactivation of HIV-1 latency (Jurkat-LAT-GFP; lower concentrations (10 nM), ERK activation and nuclear phosphorylation of p65) | activation of NF-κB and MAPKs (JNK and ERK) pathways (classical PKCs pathways; [4]) | translocation of cPKCs (classical PKCs pathways; [4]) | translocation of cPKCs and Ras-GRP1 (classical PKCs pathways; lower concentrations (10 nM)) | synergy with valproic acid (VPA) to activate the transcription factor SP1 (transcription factor SP1) | gene expression in T cells, low vs. high concentrations (T cells) | HIV-1 latency ex vivo [1] | adverse events [2] | expression of the human HIV-1 receptors CD4 and CXCR4 [3] | de novo HIV-1 infection (HIV-1) | synergy with HDAC inhibitors such as valproic acid to antagonise HIV-1 latency (HIV-1 latency) | HIV transcription from latency (HIV)
CCC/C=C/C=C/C(=O)O[C@H]1/C(=C/C(=O)OC)C[C@H]2C[C@H]([C@@H](C)O)OC(=O)C[C@H](O)C[C@@H]3C[C@H](OC(C)=O)C(C)(C)[C@](O)(C[C@@H]4C/C(=C/C(=O)OC)C[C@H](/C=C/C(C)(C)[C@]1(O)O2)O4)O3 [Bryostatin-1] | re-activates HIV-1 latency | fully reactivates HIV-1 latency | activated the canonical NF-κB and MAPKs (JNK and ERK) pathways | induced translocation of cPKCs to the plasma membrane | translocated cPKCs and Ras-GRP1 to the endoplasmic reticulum | synergize | differentially regulate gene expression | antagonized HIV-1 latency | did not induced significant adverse events | down-regulated | prevent de novo HIV-1 infection | synergizes | 
O=C(CCCCCCC(=O)Nc1ccccc1)NO [Vorinostat] |  |  |  |  |  |  |  |  |  |  |  |  | significant and sustained increase in HIV transcription from latency
